{"source": "ChEMBL document CHEMBL5236631", "about": "“Design, synthesis and biological evaluation of novel 3,4-dihydro-2H-[1,4]oxazino [2,3-f]quinazolin derivatives as EGFR-TKIs” (Bioorg Med Chem Lett, 2023)", "key": {"NCI-H1563": {"test_system": "NCI-H1563", "assay": "Antiproliferative activity against human NCI-H1563 cells assessed as inhibition of cell growth", "type": "functional, cell-based"}, "[1]": {"target": "Epidermal growth factor receptor (Homo sapiens, UniProt P00533)", "sequence (P00533 whole entry)": "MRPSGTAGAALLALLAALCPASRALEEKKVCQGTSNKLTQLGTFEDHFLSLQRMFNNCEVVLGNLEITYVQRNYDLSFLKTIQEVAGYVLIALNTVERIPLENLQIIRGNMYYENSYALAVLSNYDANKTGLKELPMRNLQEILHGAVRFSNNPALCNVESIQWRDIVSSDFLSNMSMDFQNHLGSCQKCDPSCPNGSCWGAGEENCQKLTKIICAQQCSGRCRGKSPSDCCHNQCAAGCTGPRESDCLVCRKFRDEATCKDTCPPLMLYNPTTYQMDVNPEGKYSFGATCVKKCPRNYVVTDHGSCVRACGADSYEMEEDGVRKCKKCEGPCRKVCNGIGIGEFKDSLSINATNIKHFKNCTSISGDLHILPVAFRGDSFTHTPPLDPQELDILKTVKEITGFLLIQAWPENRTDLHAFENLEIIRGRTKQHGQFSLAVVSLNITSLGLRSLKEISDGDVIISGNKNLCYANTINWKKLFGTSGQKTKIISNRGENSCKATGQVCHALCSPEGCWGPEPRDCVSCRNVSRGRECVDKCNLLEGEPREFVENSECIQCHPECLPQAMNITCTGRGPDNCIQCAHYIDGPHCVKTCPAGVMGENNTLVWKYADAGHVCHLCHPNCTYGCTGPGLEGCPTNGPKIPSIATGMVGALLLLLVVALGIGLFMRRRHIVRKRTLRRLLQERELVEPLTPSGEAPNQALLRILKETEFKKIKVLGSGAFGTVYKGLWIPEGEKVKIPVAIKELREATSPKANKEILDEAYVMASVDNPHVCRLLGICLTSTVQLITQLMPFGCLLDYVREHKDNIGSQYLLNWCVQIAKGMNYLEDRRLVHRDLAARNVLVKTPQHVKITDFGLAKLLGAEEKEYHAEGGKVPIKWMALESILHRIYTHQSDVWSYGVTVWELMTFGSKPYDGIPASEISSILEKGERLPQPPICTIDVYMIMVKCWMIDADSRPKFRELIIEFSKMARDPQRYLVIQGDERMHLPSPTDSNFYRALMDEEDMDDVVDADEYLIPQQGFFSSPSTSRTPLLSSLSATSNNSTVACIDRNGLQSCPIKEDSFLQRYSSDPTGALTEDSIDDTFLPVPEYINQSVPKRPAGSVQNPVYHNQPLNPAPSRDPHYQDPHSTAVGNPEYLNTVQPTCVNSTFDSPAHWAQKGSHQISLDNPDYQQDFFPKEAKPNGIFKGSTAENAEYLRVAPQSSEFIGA", "assay": "Inhibition of wild type EGFR (unknown origin) autophosphorylation by Kinase-Glo luminescent assay"}, "NCI-H1975": {"test_system": "NCI-H1975", "assay": "Antiproliferative activity against human NCI-H1975 cells harboring T790M mutation assessed as inhibition of cell growth", "type": "functional, cell-based"}, "[2]": {"assay": "Cytotoxicity against human 16HBE14o- cells assessed as inhibition of cell growth by MTT assay", "type": "toxicity, cell-based"}}}
{"smiles": "CC(=O)N1CCOc2c1ccc1ncnc(Nc3cccc(C(F)(F)F)c3)c21", "values": [{"measurement": "IC50", "setting": "NCI-H1563", "result": "> 40", "unit": "µM"}, {"measurement": "IC50", "setting": "[1]", "result": 534, "unit": "nM"}, {"measurement": "IC50", "setting": "NCI-H1975", "result": "> 40", "unit": "µM"}]}
{"smiles": "Fc1ccc(Nc2ncnc3ccc4c(c23)OCCN4)cc1Cl", "values": [{"measurement": "IC50", "setting": "NCI-H1563", "result": "< 1.25", "unit": "µM"}, {"measurement": "IC50", "setting": "[1]", "result": 87.3, "unit": "nM"}, {"measurement": "IC50", "setting": "NCI-H1975", "result": 1.6, "unit": "µM"}, {"measurement": "CC50", "setting": "[2]", "result": 130, "unit": "nM"}]}
{"smiles": "CC(=O)N1CCOc2c1ccc1ncnc(Nc3ccc(F)c(Cl)c3)c21", "values": [{"measurement": "IC50", "setting": "NCI-H1563", "result": "> 40", "unit": "µM"}, {"measurement": "IC50", "setting": "[1]", "result": 47.2, "unit": "nM"}, {"measurement": "IC50", "setting": "NCI-H1975", "result": "> 40", "unit": "µM"}]}
{"smiles": "CCC(=O)N1CCOc2c1ccc1ncnc(Nc3cccc(Br)c3)c21", "values": [{"measurement": "IC50", "setting": "NCI-H1563", "result": 24.8, "unit": "µM"}, {"measurement": "IC50", "setting": "[1]", "result": 70.3, "unit": "nM"}, {"measurement": "IC50", "setting": "NCI-H1975", "result": 3.6, "unit": "µM"}, {"measurement": "CC50", "setting": "[2]", "result": 1250, "unit": "nM"}]}
{"smiles": "CCC(=O)N1CCOc2c1ccc1ncnc(Nc3cccc(C(F)(F)F)c3)c21", "values": [{"measurement": "IC50", "setting": "NCI-H1563", "result": "> 40", "unit": "µM"}, {"measurement": "IC50", "setting": "[1]", "result": 838, "unit": "nM"}, {"measurement": "IC50", "setting": "NCI-H1975", "result": "> 40", "unit": "µM"}]}
{"smiles": "CC(=O)N1CCOc2c1ccc1ncnc(Nc3cccc(Br)c3)c21", "values": [{"measurement": "IC50", "setting": "NCI-H1563", "result": "> 40", "unit": "µM"}, {"measurement": "IC50", "setting": "[1]", "result": 45.6, "unit": "nM"}, {"measurement": "IC50", "setting": "NCI-H1975", "result": "> 40", "unit": "µM"}, {"measurement": "CC50", "setting": "[2]", "result": 1400, "unit": "nM"}]}
{"smiles": "CN1CCN(CCC(=O)N2CCOc3c2ccc2ncnc(Nc4cccc(Br)c4)c32)CC1", "values": [{"measurement": "IC50", "setting": "NCI-H1563", "result": 12.5, "unit": "µM"}, {"measurement": "IC50", "setting": "[1]", "result": 40.7, "unit": "nM"}, {"measurement": "IC50", "setting": "NCI-H1975", "result": 4.16, "unit": "µM"}, {"measurement": "CC50", "setting": "[2]", "result": 1350, "unit": "nM"}]}
{"smiles": "CCC(=O)N1CCOc2c1ccc1ncnc(Nc3ccc(F)c(Cl)c3)c21", "values": [{"measurement": "IC50", "setting": "NCI-H1563", "result": "> 40", "unit": "µM"}, {"measurement": "IC50", "setting": "[1]", "result": 70.6, "unit": "nM"}, {"measurement": "IC50", "setting": "NCI-H1975", "result": "> 40", "unit": "µM"}]}
{"smiles": "FC(F)(F)c1cccc(Nc2ncnc3ccc4c(c23)OCCN4)c1", "values": [{"measurement": "IC50", "setting": "NCI-H1563", "result": "> 40", "unit": "µM"}, {"measurement": "IC50", "setting": "[1]", "result": 938, "unit": "nM"}, {"measurement": "IC50", "setting": "NCI-H1975", "result": 4.18, "unit": "µM"}]}
{"smiles": "COCCOc1cc2ncnc(Nc3cccc(Cl)c3)c2c2c1OC(COC)CO2", "note": "(stereo not given)", "values": [{"measurement": "IC50", "setting": "[1]", "result": 10.3, "unit": "nM"}]}
{"smiles": "CN1CCN(CCC(=O)N2CCOc3c2ccc2ncnc(Nc4ccc(F)c(Cl)c4)c32)CC1", "values": [{"measurement": "IC50", "setting": "NCI-H1563", "result": 10.6, "unit": "µM"}, {"measurement": "IC50", "setting": "[1]", "result": 25.7, "unit": "nM"}, {"measurement": "IC50", "setting": "NCI-H1975", "result": 3.25, "unit": "µM"}, {"measurement": "CC50", "setting": "[2]", "result": 1240, "unit": "nM"}]}
{"smiles": "Brc1cccc(Nc2ncnc3ccc4c(c23)OCCN4)c1", "values": [{"measurement": "IC50", "setting": "NCI-H1563", "result": "< 1.25", "unit": "µM"}, {"measurement": "IC50", "setting": "[1]", "result": 120, "unit": "nM"}, {"measurement": "IC50", "setting": "NCI-H1975", "result": 15.6, "unit": "µM"}]}
{"smiles": "CN1CCN(CCC(=O)N2CCOc3c2ccc2ncnc(Nc4cccc(C(F)(F)F)c4)c32)CC1", "values": [{"measurement": "IC50", "setting": "NCI-H1563", "result": 21.2, "unit": "µM"}, {"measurement": "IC50", "setting": "[1]", "result": 148, "unit": "nM"}, {"measurement": "IC50", "setting": "NCI-H1975", "result": 4.37, "unit": "µM"}]}
{"smiles": "C#Cc1cccc(Nc2ncnc3cc(OCCOC)c(OCCOC)cc23)c1", "note": "[ERLOTINIB]", "values": [{"measurement": "IC50", "setting": "NCI-H1563", "result": 8.17, "unit": "µM"}, {"measurement": "IC50", "setting": "NCI-H1975", "result": 4.67, "unit": "µM"}, {"measurement": "CC50", "setting": "[2]", "result": 1320, "unit": "nM"}]}
